Patent publication US20100120690A1, “Polypeptides Having Antimicrobial Activity and Polynucleotides Encoding Same” (Novozymes Adenium Biotech A/S, priority 2005, published 2010)

How the values were obtained:
Format in all cases: cell-based
[1] = system: Staphylococcus aureus, ATCC 29213; assay: MIC, NCCLS/CLSI guidelines (Example 5), strain A; conditions: relative to wildtype Plectasin; average of two independent experiments
Experimental: (§1) Plectasin wild-type (SEQ ID NO: 1) and several variants of Plectasin were expressed and purified. The Minimal Inhibitory Concentration (MIC) was determined to test for their antimicrobial activity following the NCCLS guidelines from CLSI (Clinical and Laboratory Standards Institute; formerly known as National Committee for Clinical and Laboratory Standards).
(§2) The peptides were tested against the following strains: • A: Staphylococcus aureus, ATCC 29213; • B: Staphylococcus aureus, ATCC 25923; • C: Staphylococcus aureus, ATCC 29737; • D: Staphylococcus aureus, MRSA ST5 (2001), multi-resistant clinical human isolate from Statens Serum Institut, Denmark; • E: Staphylococcus aureus, MRSA ST80 (2003), multi-resistant clinical human isolate from Statens Serum Institut, Denmark.
(§3) All MIC values represent an average of two independent experiments; and all results in Table 5 are expressed relative to wildtype Plectasin:
(§4) 0: >100% of Plectasin wildtype MIC; 1: 80-100% of Plectasin wildtype MIC; 2: 50-80% of Plectasin wildtype MIC; 3: <50% of Plectasin wildtype MIC.

[2] = system: Staphylococcus aureus, ATCC 25923; assay: MIC, NCCLS/CLSI guidelines (Example 5), strain B; conditions: relative to wildtype Plectasin; average of two independent experiments
Experimental: as §1, §2, §3, §4

[3] = system: Staphylococcus aureus, ATCC 29737; assay: MIC, NCCLS/CLSI guidelines (Example 5), strain C; conditions: relative to wildtype Plectasin; average of two independent experiments
Experimental: as §1, §2, §3, §4

[4] = system: Staphylococcus aureus, MRSA ST5 (2001); assay: MIC, NCCLS/CLSI guidelines (Example 5), strain D; conditions: relative to wildtype Plectasin; average of two independent experiments
Experimental: as §1, §2, §3, §4

[5] = system: Staphylococcus aureus, MRSA ST80 (2003); assay: MIC, NCCLS/CLSI guidelines (Example 5), strain E; conditions: relative to wildtype Plectasin; average of two independent experiments
Experimental: as §1, §2, §3, §4

[6] = system: panel of 6 different strains of Staphylococcus aureus; assay: Average MIC, NCCLS/CLSI guidelines using caMHB (Example 6); conditions: average over 6 S. aureus strains, duplicate; MIC above 32 counted as 64; read after 18-24 hours at 37° C.
Experimental: A large number of antimicrobial peptides of the invention were tested against a panel of 6 different strains of Staphylococcus aureus listed below:
Staphylococcus aureus, ATCC29213, MSSA, NCCLS reference strain; Staphylococcus aureus, ATCC25923, MSSA, NCCLS reference strain; Staphylococcus aureus, ATCC29737, MSSA; Staphylococcus aureus, E33235, MSSA; Staphylococcus aureus, 698-01, MRSA ST5, Str, Kan, Oxa; Staphylococcus aureus, 566-03, MRSA ST80, Oxa, Tet, Fus, Kan.
The staphylococci were exposed to the following peptide concentrations: 32; 16; 8; 4; 2; 1; 0.5; 0.25; 0.13; […]; and 0.03 microgram/mL. All peptides were purified, HPLC quantified and the concentrated peptides (>160 micrograms/mL) were diluted to 160 micrograms/mL in peptide dilution buffer (0.1% BSA, 0.01% Acetic Acid).
The MIC determination was done essentially as described by NCCLS/CLSI guidelines using caMHB. The MICs were read after 18-24 hours of 37° C. incubations and recorded along with the CFU in the table below.
A total number of 95 antimicrobial peptides of the invention were evaluated in duplicate against the 6 bacterial strains described above.
In the majority of the double determinations (93%), the MIC varied <2 fold. An average MIC is tabulated below. If the MIC was above 32 micrograms/mL, a value of 64 was used to calculate the average.

[7] = system: Staphylococcus carnosus ATCC51365; assay: Yeast screening assay: radial diffusion assay of yeast supernatants; set-up: key: An activity of 3 is better than Plectasin; An activity of 2 corresponds to the activity of Plectasin; 1 is worse than Plectasin; conditions: yeast supernatant, clearing zone in radial diffusion assay
Procedure, shortened: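 Activity scores (1 worse, 2 equal, 3 better than wild-type plectasin) come from the size of the radial-diffusion clearing zone against S. carnosus at 5×10^5 cfu/mL. Test samples were culture supernatants of yeast transformants induced with galactose for 3 days at 30 °C, and plates were developed at 37 °C with MTT.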

| Substance | Relative MIC, strain A [1] | Relative MIC, strain B [2] | Relative MIC, strain C [3] | Relative MIC, strain D [4] | Relative MIC, strain E [5] | Average MIC [6] [micrograms/mL] | Activity (antimicrobial activity relative to the activity of plectasin) [7] |
| --- | --- | --- | --- | --- | --- | --- | --- |
| M13T + Q14K + K26R: variant of Plectasin (SEQ ID NO: 1) (GFGCNGPWDEDDTKCHNHCKSIKGYRGGYCAKGGFVCKCY) | 1 (80-100% of Plectasin wildtype MIC) | 3 (<50% of Plectasin wildtype MIC) | 3 (<50% of Plectasin wildtype MIC) | 2 (50-80% of Plectasin wildtype MIC) | 0 (>100% of Plectasin wildtype MIC) | 7 | – |
| N5S + D9S + M13L + Q14R + N17V + A31S: variant of Plectasin (SEQ ID NO: 1) (GFGCSGPWSEDDLRCHVHCKSIKGYKGGYCSKGGFVCKCY) | 3 (<50% of Plectasin wildtype MIC) | 3 (<50% of Plectasin wildtype MIC) | 3 (<50% of Plectasin wildtype MIC) | 3 (<50% of Plectasin wildtype MIC) | 3 (<50% of Plectasin wildtype MIC) | 2 | – |
| N5S + D9A + K26R: variant of Plectasin (SEQ ID NO: 1) (GFGCSGPWAEDDMQCHNHCKSIKGYRGGYCAKGGFVCKCY) | 3 (<50% of Plectasin wildtype MIC) | 3 (<50% of Plectasin wildtype MIC) | 3 (<50% of Plectasin wildtype MIC) | 3 (<50% of Plectasin wildtype MIC) | 3 (<50% of Plectasin wildtype MIC) | 3 | – |
| D9S + M13L + Q14H: variant of Plectasin (SEQ ID NO: 1) (GFGCNGPWSEDDLHCHNHCKSIKGYKGGYCAKGGFVCKCY) | 3 (<50% of Plectasin wildtype MIC) | 3 (<50% of Plectasin wildtype MIC) | 3 (<50% of Plectasin wildtype MIC) | 3 (<50% of Plectasin wildtype MIC) | 3 (<50% of Plectasin wildtype MIC) | 3 | – |
| N5G + Q14K: variant of Plectasin (SEQ ID NO: 1) (GFGCGGPWDEDDMKCHNHCKSIKGYKGGYCAKGGFVCKCY) | 2 (50-80% of Plectasin wildtype MIC) | 2 (50-80% of Plectasin wildtype MIC) | 3 (<50% of Plectasin wildtype MIC) | 0 (>100% of Plectasin wildtype MIC) | 2 (50-80% of Plectasin wildtype MIC) | 9 | – |
| GFGCSGPWDEDDMRCHSHCKSIRGYKGGYCAKGGFVCKCY [N5S + Q14R + N17S + K23R] | 1 (80-100% of Plectasin wildtype MIC) | 3 (<50% of Plectasin wildtype MIC) | 3 (<50% of Plectasin wildtype MIC) | 3 (<50% of Plectasin wildtype MIC) | – | 8 | 3 |
| GFGCNGPWDEDDMQCHNHCKSIKRYKGGYCAKGGFVCKCY [Mutation G24R] | 1 (80-100% of Plectasin wildtype MIC) | 2 (50-80% of Plectasin wildtype MIC) | – | 2 (50-80% of Plectasin wildtype MIC) | 2 (50-80% of Plectasin wildtype MIC) | 8 | 2 |
| M13V + N17T: variant of Plectasin (SEQ ID NO: 1) (GFGCNGPWDEDDVQCHTHCKSIKGYKGGYCAKGGFVCKCY) | – | 3 (<50% of Plectasin wildtype MIC) | 3 (<50% of Plectasin wildtype MIC) | 3 (<50% of Plectasin wildtype MIC) | 3 (<50% of Plectasin wildtype MIC) | 3 | – |
| M13F + Q14K + K26R: variant of Plectasin (SEQ ID NO: 1) (GFGCNGPWDEDDFKCHNHCKSIKGYRGGYCAKGGFVCKCY) | 3 (<50% of Plectasin wildtype MIC) | – | 3 (<50% of Plectasin wildtype MIC) | 3 (<50% of Plectasin wildtype MIC) | 3 (<50% of Plectasin wildtype MIC) | 6 | – |
| M13L + Q14K + K26R: variant of Plectasin (SEQ ID NO: 1) (GFGCNGPWDEDDLKCHNHCKSIKGYRGGYCAKGGFVCKCY) | 3 (<50% of Plectasin wildtype MIC) | – | 3 (<50% of Plectasin wildtype MIC) | 3 (<50% of Plectasin wildtype MIC) | – | 9 | – |
| D9S + Q14L: variant of Plectasin (SEQ ID NO: 1) (GFGCNGPWSEDDMLCHNHCKSIKGYKGGYCAKGGFVCKCY) | 3 (<50% of Plectasin wildtype MIC) | – | 3 (<50% of Plectasin wildtype MIC) | 3 (<50% of Plectasin wildtype MIC) | 3 (<50% of Plectasin wildtype MIC) | 3 | – |
| GFGCGGPWDEDDMQCHNHCKSIKGYKGGYCAKGGFVCKCY [Mutation N5G] | – | – | – | – | – | 24 | 3 |
| N5R + M13V: variant of Plectasin (SEQ ID NO: 1) (GFGCRGPWDEDDVQCHNHCKSIKGYKGGYCAKGGFVCKCY) | 3 (<50% of Plectasin wildtype MIC) | – | 3 (<50% of Plectasin wildtype MIC) | 2 (50-80% of Plectasin wildtype MIC) | 3 (<50% of Plectasin wildtype MIC) | 5 | – |
| GFGCNGPWDEDDMQCHNHCKSIKGYKGGYCNKGGFVCKCY [Mutation A31N] | – | – | – | – | – | 9 | 3 |
| N5S + M13W + N17R: variant of Plectasin (SEQ ID NO: 1) (GFGCSGPWDEDDWQCHRHCKSIKGYKGGYCAKGGFVCKCY) | 3 (<50% of Plectasin wildtype MIC) | – | 3 (<50% of Plectasin wildtype MIC) | 3 (<50% of Plectasin wildtype MIC) | 3 (<50% of Plectasin wildtype MIC) | 2 | – |
| GFGCNGPWSEDDMQCHNHCKSIKGYKGGYCAKGGFVCKCY [Mutation D9S] | 2 (50-80% of Plectasin wildtype MIC) | 3 (<50% of Plectasin wildtype MIC) | 3 (<50% of Plectasin wildtype MIC) | 2 (50-80% of Plectasin wildtype MIC) | – | 7 | 3 |
| GFGCNGPWDEDDMQCHNHCKSIKGYKGGYCAKGGFLCKCY [Mutation V36L] | – | – | – | – | – | 26 | 3 |
| GFGCNGPWDEDDMFCHNHCKSIKGYKGGYCAKGGFVCKCY [Mutation Q14F] | 1 (80-100% of Plectasin wildtype MIC) | – | 3 (<50% of Plectasin wildtype MIC) | 2 (50-80% of Plectasin wildtype MIC) | 3 (<50% of Plectasin wildtype MIC) | 5 | 3 |
